# Reference: patent US4508728A, “Method of treating inflammatory diseases” (priority 1984, dated 1985)
# Experiments:
# [1] = system: inflammation of respiratory tract; assay: Clinical Case No. 8: inflammation of respiratory tract, nebulizer; type: in vivo, human; set-up: key: -: Non effective; +: Effective; ++: Remarkably effective; settings: 0.1% solution
# Source text: 0.1% homocarnosine solution in physiological saline was used for the following patients suffering from inflammation of respiratory tract with the aid of nebulizer.
# granulation = assay: Granulation formation, formalin filter paper method (FFP method), with quantitative analysis of hydroxyprolin; type: in vivo, rat (Wister strain male); settings: for Hydroxyproline / Wet weight of granulation: once daily for 7 days
# Source text: The promotive action of granulation by homocarnosine was examined by a routine formalin filter paper method (FFP method) and the quantitative analysis of hydroxyprolin. For experimental purposes, use was made of groups of 5 or 6 six-week old Wister strain male rats weighing around 170 g each. The hair was sheared from the backs of these animals using clippers and under ether anesthesia they were given an incision of about 1 cm by a shap surgical knife along the dorsal median line. A piece of filter paper (No. 26 product by Toyo Filter Paper Co.) was cut into circles having a diameter of 6.7 mm which were immersed in a 7% formalin solution. In each rat, these filter paper circles, 4 altogether, were inserted underneath the skin of the right and left scapular areas and under the skin about 4 cm to the rear or these areas, two circles on the right side and two on the left side. A dose of penicillin was given to prevent the possibility of infective suppuration subcutaneously and the incised portion was sutured by use of clips. On the second day after the insertion of formalin immersed filter paper, the sutures were removed and on the seventh day they were put to death under ether anesthesia by cutting the carotid vessels, from which the mass of granulations that had been formed by formalin immersed filter paper was taken out. After the entire granular mass containing filter paper was measured for wet weight, the mass from the left scapular area was used for the quantitative analysis of hydroxyprolin. Homocarnosine was prepared in an isotonic solution and was injected into the animals either subcutaneously or peritoneally once daily for seven days after the suture. When an oral administration was needed, it was made in a 15% solution and was poured into the esophagus. The mass of granulations freed from the filter paper was defatted by ethanol-ether and after being rendered in the gelatin state by an autoclave it was added with concentrated hydrochloric acid and was hydrolyzed overnight at a temperature of 105° to 110° C. After it was thickened and dried at 105° to 110° C., the product was added with 0.02N hydrochloric acid and its hydroxyprolin was quantified by a Hitachi-835 amino acid automatic analyzer in an effort to estimate the amount of collagen that had been synthesized.
# surgical wounds = assay: Wound healing: tensile strength of sutured surgical incision on the 7th day; type: in vivo, rat (Wister strain male); settings: for Tensile Strength, % of control / Tensile Strength, X ± S.E.: daily for 7 days
# Protocol: The healing effect of surgical wounds by homocarnosine was assessed in the following manner. Six-week old Wister strain male rats weighing around 170 g each were used. The rats which had their backs denuded over an extensive area by clippers were given an incision of about 4 cm by a sharp surgical knife along the dorsal medial line under ether anesthesia. A dosage of penicillin was administered to prevent the possibility of infective suppuration and the incision was uniformly sutured with silk threads at 3 spots. Homocarnosine was made into isotonic solution which was subcutaneously injected every day into 8 places on both sides of the incision equally for 7 days. Physiologic saline was employed as a control. The threads were removed 4 days after the formation of the incisions and the experimental animals were put to death on the 7th day under ether anesthesia, and 3 pieces of dosal skin, 3 cm in length and 1 cm in width each, were surgically cut off in such manner that the incision line lay at the middle of the piece. One side of each piece of skin was fixed and the other was pulled and the force required to separate the skin at the point the incision had been made was taken to indicate the tensile strength.
# hemorrohoid = assay: Clinical Case No. 7: hemorrhoid; type: in vivo, human; set-up: key: -: Non effective; +: Effective; ++: Remarkably effective; settings: suppository 10 mg
# Protocol: 1.7 g suppository, one suppository containing 10 mg homocarnosine, was used for the following patients suffering from hemorrohoid.
# *Conjointly administered with 0.5% homocarnosine ointment.
# dermatitis = assay: Clinical Case No. 9: various types of dermatitis; type: in vivo, human; set-up: key to Effect: -: Non effective; +: Effective; ++: Remarkably effective
# Source text: 0.5% homocarnosine in the form of an ointment was applied to the following patients suffering from various types of dermatitis.
# dental extraction wounds = assay: Clinical Case No. 1: dental extraction wound; type: in vivo, human; set-up: key to Cure (Wound Healing): ++: Found to be highly effective compared with ordinary therapy.; +: Effective; -: Noneffective; key to Postoperative pains, 2 hours / Postoperative pains, 12 hours / Postoperative pains, 24 hours: -: No subjective pains.; ±: Though subjective pains were present, no analgesic was used.; +: Subjective pains and an analgesic was administered
# Protocol: 0.5% homocarnosine injection solution was administered to the wound brought about by a dental extraction.
# cervical erosion = assay: Clinical Case No. 5: cervical erosion; type: in vivo, human; settings: suppository 20 mg
# Protocol: 1.7 g suppository, one suppository containing 20 mg homocarnosine, was used for the following patients suffering from cervical erosion.
# aftha stomatitis = assay: Clinical Case No. 2: aftha stomatitis; type: in vivo, human; set-up: key: The patients in whom the pain disappeared immediately after injection of homocarnosine solution with no subsequent pain complaints on the following day, and the ulcerated area had shrunk postoperatively were assessed as favorable ++; settings: 0.1 ml of 0.5% solution injected
# Protocol: Patients who complained of the aftha stomatitis were injected with 0.5% homocarnosine solution.
# The patients in whom the pain disappeared immediately after injection of homocarnosine solution with no subsequent pain complaints on the following day, and the ulcerated area had shrunk postoperatively were assessed as favorable ++.
# angulus infectiosus = assay: Clinical Case No. 3: angulus infectiosus; type: in vivo, human; set-up: key: those cases in which the wounds became closed on the day following homocarnosine administration were judged as ++; those in which three applications were further needed before favorable results were obvious were judged as +
# Source text: 0.5% homocarnosine in the form of a paste was applied in cases of angulus infectiosus in a dosage of 0.8 g on the basis of three times daily.
# In assessing the effect of treatment, those cases in which the wounds became closed on the day following homocarnosine administration were judged as ++ and those in which three applications were further needed before favorable results were obvious were judged as +.
# Solubility in water = type: physicochemical
# herpes zoster = assay: Clinical Case No. 4: herpes zoster; type: in vivo, human; settings: person
# Source text: 5% homocarnosine paste was applied to a case of herpes zoster.
# Region: The herpes zoster extended from the lower part of right breast to the side of body.
# Course of the complaint: The patient came for consultation after three days of subjective complaint. 1 g of 5% homocarnosine paste was applied to the diseased region.
# decubital ulcer = assay: Clinical Case No. 6: decubital ulcer; type: in vivo, human; set-up: key: -: Non effective; +: Effective; ++: Remarkably effective
# Source text: 1% homocarnosine ointment was applied to the cases of decubital ulcer as follows.
# [2] = case 1, horizontal impaction, 0.3 ml of 0.5% injection solution
# [3] = case 2, alveolar osteitis, 0.3 ml of 0.5% injection solution
# [4] = case 3, traumatic bone fracture, 0.1 ml of 0.5% injection solution
# [5] = case 4, dental root cyst, 0.2 ml of 0.5% injection solution
# [6] = case 5, alveolar osteitis, 0.3 ml of 0.5% injection solution
structure (smiles),measurement,setting,value
"NCCCC(=O)N[C@@H](Cc1cnc[nH]1)C(=O)O [Homocarnosine, L-histidinyl-γ-aminobutylic acid]",Effect,"[1]; case 1, allergic rhinitis, 0.8 ml × 2",++
same,Effect,"[1]; case 2, inflamed respiratory tract, 1.0 ml × 1",++
same,Effect,"[1]; case 3, inflamed respiratory tract, 1.0 ml × 3",++
same,Effect,"[1]; case 4, tonsillitis, 1.0 ml × 3",++
same,Effect,"[1]; case 5, asthma, 1.0 ml twice daily for 10 days",++
same,Hydroxyproline,"granulation; 3 mg/kg i.p., 7 granuloma",97.8 ± 10.1 % of control
same,Wet weight of granulation,"granulation; 3 mg/kg i.p., 18 granuloma",96.1 ± 5.6 % of control
same,Hydroxyproline,"granulation; 10 mg/kg i.p., 9 granuloma",127.6 ± 14.5 % of control
same,Wet weight of granulation,"granulation; 10 mg/kg i.p., 20 granuloma, p < 0.01",121.3 ± 5.7 % of control
same,Hydroxyproline,"granulation; 30 mg/kg i.p., 8 granuloma",123.9 ± 8.0 % of control
same,Wet weight of granulation,"granulation; 30 mg/kg i.p., 19 granuloma, p < 0.025",126.6 ± 7.3 % of control
same,Wet weight of granulation,"granulation; 50 mg/kg i.p., 20 granuloma",133.7 ± 7.2 % of control
same,Wet weight of granulation,"granulation; 70 mg/kg i.p., 24 granuloma",131.7 ± 7.8 % of control
same,Wet weight of granulation,"granulation; 90 mg/kg i.p., 20 granuloma",135.6 ± 7.2 % of control
same,Granulation formation (in words),"granulation; 10, 30, 50, 70 and 90 mg/kg (i.p.)",effective in promoting granulation formation
same,Hydroxyprolin amount (in words),granulation; relative to wet weight of granulations,increased in proportion to an increase in the wet weight of granulations
same,"Tensile Strength, % of control","surgical wounds; 0.06 mg/rat i.d., 18 skins",96.1 % of control
same,"Tensile Strength, X ± S.E.","surgical wounds; 0.06 mg/rat i.d., 18 skins",436.8 ± 27.6
same,"Tensile Strength, % of control","surgical wounds; 0.6 mg/rat i.d., 15 skins",108.6 % of control
same,"Tensile Strength, X ± S.E.","surgical wounds; 0.6 mg/rat i.d., 15 skins",493.3 ± 27.5
same,"Tensile Strength, % of control","surgical wounds; 6.0 mg/rat i.d., 18 skins",118.8 % of control
same,"Tensile Strength, X ± S.E.","surgical wounds; 6.0 mg/rat i.d., 18 skins, p < 0.01",539.6 ± 41.5
same,"Effect on surgical wounds, tensile strength on the 7th day (in words)","surgical wounds; subcutaneous, 0.6 and 6.0 mg/rat",efficacy is indicated by the tensile strength of wounds on the 7th day
same,Effect,"hemorrohoid; case 1, ractal bleeding, 1 tablet daily for 4 days, conjointly with 0.5% homocarnosine ointment",++
same,Effect,"hemorrohoid; case 2, inner hemorrhoids, 1 tablet daily for 14 days",++
same,Effect,"dermatitis; case 1, allergic dermatitis, 0.5% ointment 1.0 g twice daily",++
same,Effect,"dermatitis; case 2, geriatric itchiness, 0.5% ointment 0.5 g before sleeping",++
same,Partial ulcer recovery (in words),"dermatitis; case 2, geriatric itchiness, 0.5% ointment 0.5 g, partial, after one application",ulcer recovery was noted
same,Effect,"dermatitis; case 3, eczema, 0.5% ointment 1.0 g twice daily for 2 days",++
same,Effect,"dermatitis; case 4, burn (back of left hand), 0.5% ointment 1.0 g once daily for 4 days",++
same,Cure (Wound Healing),dental extraction wounds; [2],++
same,"Postoperative pains, 2 hours",dental extraction wounds; [2],-
same,"Postoperative pains, 12 hours",dental extraction wounds; [2],±
same,"Postoperative pains, 24 hours",dental extraction wounds; [2],-
same,Cure (Wound Healing),dental extraction wounds; [3],++
same,"Postoperative pains, 2 hours",dental extraction wounds; [3],-
same,"Postoperative pains, 12 hours",dental extraction wounds; [3],-
same,"Postoperative pains, 24 hours",dental extraction wounds; [3],-
same,Cure (Wound Healing),dental extraction wounds; [4],++
same,"Postoperative pains, 2 hours",dental extraction wounds; [4],-
same,"Postoperative pains, 12 hours",dental extraction wounds; [4],-
same,"Postoperative pains, 24 hours",dental extraction wounds; [4],-
same,Cure (Wound Healing),dental extraction wounds; [5],++
same,"Postoperative pains, 2 hours",dental extraction wounds; [5],-
same,"Postoperative pains, 12 hours",dental extraction wounds; [5],+
same,"Postoperative pains, 24 hours",dental extraction wounds; [5],-
same,Cure (Wound Healing),dental extraction wounds; [6],++
same,"Postoperative pains, 2 hours",dental extraction wounds; [6],-
same,"Postoperative pains, 12 hours",dental extraction wounds; [6],-
same,"Postoperative pains, 24 hours",dental extraction wounds; [6],-
same,Effect (in words),"cervical erosion; case 1, C II, 2 tablets in one day",Cured
same,Effect (in words),"cervical erosion; case 2, C IIIa, 1 tablet daily for 7 days",Cured
same,Effect (in words),"cervical erosion; case 3, C IIIb, 2 tablets daily for 7 days",Cured
same,Effect (in words),"cervical erosion; case 4, C IIIc, 2 tablets daily for 14 days",Cured
same,Effect,"aftha stomatitis; case 1, isolative aphtha",++
same,Effect,"aftha stomatitis; case 2, tip of the tongue, person",++
same,Effect,"aftha stomatitis; case 3, lower surface of the tongue, person",++
same,Effect,"angulus infectiosus; person five, right, 0.5% paste 0.8 g × 3",++
same,Effect,"angulus infectiosus; person four, right and left, 0.5% paste 0.8 g × 6",+
same,Effect,"angulus infectiosus; person one, right, 0.5% paste 0.8 g × 3",++
same,Effect,"angulus infectiosus; person three, right, 0.5% paste 0.8 g × 3",++
same,Effect,"angulus infectiosus; person two, right and left, 0.5% paste 0.8 g × 6",+
same,Effect,"angulus infectiosus; person, left, 0.5% paste 0.8 g × 3",++
same,Solubility in water,Solubility in water,readily soluble in water
same,Relapse,herpes zoster; 1 g of 5% paste,no relapse of the symptom
same,Pains,"herpes zoster; 1 g of 5% paste, in about one hour",the pains disappeared completely
same,Cysts,"herpes zoster; 5% paste, 1 g five times daily",discolored and dry
same,Herpes symptom,"herpes zoster; 5% paste, 1 g five times daily",cured after seven days
same,Effect,"decubital ulcer; case 1, back (2 × 4 cm), 1% ointment 0.5-1.0 g once daily for 4 days",++
same,Effect,"decubital ulcer; case 2, nates (2 × 3 cm), 1% ointment 0.5-1.0 g once daily for 8 days",++
